Legend:
human EP4 = target: T1, human EP4 (Homo sapiens, UniProt P35408); test: cAMP Gs functional assay (HTRF cAMP dynamic-2); format: cell-based; conditions: for Emax: HEK293, HEK293 cells transfected with EP4 Bacmam virus; for EC50: 30 mins at 37° C., −Log of the molarity (M), read-out: cAMP human EP4 pEC50 (converted)
T1 construct: expressed in transfected cells; host or cells: HEK293 cells transduced with EP4 BacMam virus
Procedure: Cloning, Baculovirus generation, large scale infection of HEK293 cells and membrane preparation: Human prostaglandin E2 receptor 4 (EP4) was cloned into pBacMam expression vector (GeneScript, UK). Transposition of EP4 DNA was performed using Invitrogen's Bac-to-Bac Baculovirus Expression Systems. P0 baculovirus was generated by transfecting SF9 Cells with bacmid DNA using Cellfectin II transfection reagent (ThermoFisher Scientific, UK). Following P0 generation P1 virus was then generated ready for large scale infection and membrane preparation. HEK293 cells were grown in DMEM (ThermoFisher Scientific, UK), supplemented with 10% heat inactivated fetal bovine serum (FBS). Cells were infected at a seeding density of 3.5 million cells/mL in 500 cm^3 flasks at 5% v/v EP4 Bacman. Expression was carried out over a 36 hr period at 37° C. with 5% CO2. The cells were removed using PBS and a cell scrapper. The cell culture was centrifuged at 2500 RPM for 10 mins at 4° C. The supernatant was then poured off and the pellet stored at −80° C. The pellet was defrosted and re-suspended in 15 mL of homogenising buffer (20 mM HEPES, 10 mM EDTA, pH 7.4). Then homogenised in mechanical homogeniser (VMR) for 10 seconds. The membrane was centrifuged in centrifuge tubes at 40,000 g for 15 mins at 4° C. The supernatant was poured away and re-suspended in 15 mL of homogenising buffer. Homogenised for 20 seconds. The membrane was centrifuged at 40,000 g for 45 mins at 4° C. The membrane was re-suspended in 3 mL of storage buffer (20 mM HEPES, 0.1 mM EDTA, pH 7.4) mixing well. The resulting membranes were then stored at −80° C.
cAMP Gs Functional Assay: cAMP production following EP4 receptor activation was determined using the Homogeneous Time-Resolved Fluorescence (HTRF) cAMP dynamic-2 assay (Cisbio, France). HEK293 cells were transfected using a 0.5% EP4 Bacmam virus for 36 hours, before dissociating the cells, and freezing at −150° C.
On the day of testing, increasing concentration of test compounds, alongside positive controls (10 uM PGE2 (Tocris, Abingdon, UK)) and negative control (DMSO (Sigma-Aldrich, UK) were added to a ProxiPlate-384 Plus, White 384-shallow well Mircoplate, (PerkinElmer, USA) using the ECHO dispense.
Cells were defrosted in a water bath and resuspended in DMEM supplemented with 10% FBS before centrifuging at 1200 RPM for 5 mins to form a pellet. The pellet was resuspended in assay buffer (DMEM+0.5 mM IBMX (Tocris, Abingdon, UK)) to 0.5×10^6 cells/mL. Cell suspension, for a final assay concentration of 5000 cell/well was added using the multidrop to the pre-dispensed assay plate. The plate was then incubated at 37° C. for 30 mins, with 5% CO2. The cAMP production was determined as manufacturer's instructions, before plates were read on a PheraStar fluorescence plate reader (BMG LabTech, Germany).
The pEC50 values (−Log of the molarity (M) in mol/liter) were calculated from the mid-point of the curve using dotmatics as shown in Table 3.

[1] = Unidirectional Caco-2 cell permeability assay; format: in vitro ADME; conditions: human, n=2, apical pH 6.5, basolateral pH 7.4, 1 hour, 37° C.
Procedure: Caco-2 cells (ECACC) were seeded onto 24-well Transwell plates at 2×10^5 cells per well and used in confluent monolayers after a 21 day culture at 37° C. under 5% CO2. Test compounds were incubated at 10 μM, 0.2% DMSO final, n=2 in assay buffer (Hanks balanced salt solution supplemented with 25 mM HEPES, adjusted to pH 6.5). Hanks balanced salt solution supplemented with 25 mM HEPES, adjusted to pH 7.4 (0.2% DMSO final) was used for the basolateral chamber (as receiver).
Incubations were performed at 37° C., with samples removed from both donor and acceptor chambers at T=0 and 1 hour and compound analysed by mass spectrometry (LC-MS/MS) including an analytical internal standard (0.5 μM carbamazepine).
Apparent permeability (Papp) values are shown in Table 4 and were determined from the relationship:
Where V is the volume of each Transwell compartment (apical 125 μL, basolateral 600 μL), and concentrations are the relative MS responses for compound (normalized to internal standard) in the donor chamber before incubation and acceptor chamber at the end of the incubation Area=area of cells exposed for drug transfer (0.33 cm^2).
Lucifer Yellow (LY) was added to the apical buffer in all wells to assess viability of the cell layer. As LY cannot freely permeate lipophilic barriers, a high degree of LY transport indicates poor integrity of the cell layer and wells with a LY Papp>10×10^−6 cm/s were rejected.
Compound recovery from the wells was determined from MS responses (normalized to internal standard) in donor and acceptor chambers at the end of incubation compared to response in the donor chamber pre-incubation.

[2] = HEK293 cells transfected with EP4 Bacmam virus

T1 sequence (P35408 whole entry): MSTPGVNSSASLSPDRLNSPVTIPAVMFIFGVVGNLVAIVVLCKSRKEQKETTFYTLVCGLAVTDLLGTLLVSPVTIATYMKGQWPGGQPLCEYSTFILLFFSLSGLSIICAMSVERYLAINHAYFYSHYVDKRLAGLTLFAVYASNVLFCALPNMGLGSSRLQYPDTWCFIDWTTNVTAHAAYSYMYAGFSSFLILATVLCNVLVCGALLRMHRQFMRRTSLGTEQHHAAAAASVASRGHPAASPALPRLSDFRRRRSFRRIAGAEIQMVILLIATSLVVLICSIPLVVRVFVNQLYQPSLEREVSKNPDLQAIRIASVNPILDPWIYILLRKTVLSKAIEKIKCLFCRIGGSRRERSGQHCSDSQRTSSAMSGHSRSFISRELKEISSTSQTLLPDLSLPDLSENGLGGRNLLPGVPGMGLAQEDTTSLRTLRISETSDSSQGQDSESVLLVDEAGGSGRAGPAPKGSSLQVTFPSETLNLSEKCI

For `Cc1cc(OS(N)(=O)=O)ccc1-c1cc(O)cc(CN2CCOC[C@@H]2C(=O)N[C@@H](C)c2ccc(C(=O)O)cc2)c1` [Example 15, 4-[(1S)-1-[[(3R)-4-[[3-hydroxy-5-(2-methyl-4-sulfamoyloxy-phenyl)phenyl]methyl]morpholine-3-carbonyl]amino]ethyl]benzoic acid], the Emax (human EP4; positive control 10 uM PGE2) was 98%, the EC50 (human EP4; [2]) was 3.98e-10 M and the Papp A→B at 1 h, 10 μM [1] was < 0.1 ×10⁻⁶ cm/s.
An Emax (human EP4; positive control 10 uM PGE2) of 97%, an EC50 (human EP4; [2]) of 3.98e-08 M and a Papp A→B at 1 h, 10 μM [1] of 0.24 ×10⁻⁶ cm/s were found for `Cc1cc(C(N)=O)ccc1-c1cccc(CN2CCOC[C@@H]2C(=O)NCc2ccc(C(=O)O)nc2)c1` [Example 9, 5-[[[(3R)-4-[[3-(4-carbamoyl-2-methyl-phenyl)phenyl]methyl]morpholine-3-carbonyl]amino]methyl]pyridine-2-carboxylic acid] in this work.
An Emax (human EP4; positive control 10 uM PGE2) of 100% and a Papp A→B at 1 h, 10 μM [1] of 0.23 ×10⁻⁶ cm/s were found for `Cc1cc(C(N)=O)ccc1-c1cncc(CN2CCOC[C@@H]2C(=O)N[C@@H](C)c2ccc(C(=O)O)c(O)c2)c1` [Example 28, 4-((S)-1-((R)-4-((5-(4-carbamoyl-2-methylphenyl)pyridin-3-yl)methyl)morpholine-3-carboxamido)ethyl)-2-hydroxy benzoic acid] in this work.
An Emax (human EP4; positive control 10 uM PGE2) of 93%, an EC50 (human EP4; [2]) of 3.16e-12 M and a Papp A→B at 1 h, 10 μM [1] of 0.14 ×10⁻⁶ cm/s were found for `Cc1cc(C(N)=O)ccc1-c1cc(O)cc(CN2CCOC[C@@H]2C(=O)NC2(c3ccc(C(=O)O)cc3)CC2)c1` [Example 33, (R)-4-(1-(4-((4′-carbamoyl-5-hydroxy-2′-methyl-[1,1′-biphenyl]-3-yl)methyl)morpholine-3-carboxamido)cyclopropyl)benzoic acid] in this work.
An Emax (human EP4; positive control 10 uM PGE2) of 96%, an EC50 (human EP4; [2]) of 1e-08 M and a Papp A→B at 1 h, 10 μM [1] of 0.24 ×10⁻⁶ cm/s were found for `Cc1cc(C(N)=O)ccc1-c1cncc(CN2CCOC[C@@H]2C(=O)N[C@@H](C)c2ccc(C(=O)O)cc2)c1` [Example 1, 4-((S)-1-((R)-4-((5-(4-carbamoyl-2-methylphenyl)pyridin-3-yl)methyl)morpholine-3-carboxamido)ethyl)benzoic acid] in this work.
An Emax (human EP4; positive control 10 uM PGE2) of 98%, an EC50 (human EP4; [2]) of 1.26e-10 M and a Papp A→B at 1 h, 10 μM [1] of 0.66 ×10⁻⁶ cm/s were found for `Cc1cc(C(N)=O)ccc1-c1cccc(CN2CCOC[C@@H]2C(=O)NC2(c3ccc(C(=O)O)cc3)CC2)c1` [Example 31, (R)-4-(1-(4-((4′-carbamoyl-2′-methyl-[1,1′-biphenyl]-3-yl)methyl)morpholine-3-carboxamido)cyclopropyl)benzoic acid] in this work.
An Emax (human EP4; positive control 10 uM PGE2) of 97% was found for `C[C@H](NC(=O)[C@H]1COCCN1Cc1cccc(-c2ccc(S(N)(=O)=O)cc2O)c1)c1ccc(C(=O)O)cc1` [Example 29, 4-((S)-1-((R)-4-((2′-hydroxy-4′-sulfamoyl-[1,1′-biphenyl]-3-yl)methyl)morpholine-3-carboxamido)ethyl)benzoic acid] in this work.
With `Cc1cc(C(N)=O)ccc1-c1cccc(CN2CCOC[C@@H]2C(=O)N[C@@H](C)c2ccc(C(=O)O)c(O)c2)c1` [Example 19, 4-((S)-1-((R)-4-((4′-carbamoyl-2′-methyl-[1,1′-biphenyl]-3-yl)methyl)morpholine-3-carboxamido)ethyl)-2-hydroxybenzoic acid] the Emax (human EP4; positive control 10 uM PGE2) was 99%, the EC50 (human EP4; [2]) was 1e-08 M and the Papp A→B at 1 h, 10 μM [1] was < 0.1 ×10⁻⁶ cm/s.
An Emax (human EP4; positive control 10 uM PGE2) of 95%, an EC50 (human EP4; [2]) of 7.94e-08 M and a Papp A→B at 1 h, 10 μM [1] of 0.15 ×10⁻⁶ cm/s were found for `C[C@H](NC(=O)[C@H]1COCCN1Cc1cccc(-c2ccc(C(N)=O)cc2O)c1)c1ccc(C(=O)O)cc1` [Example 14, 4-((S)-1-((R)-4-((4′-carbamoyl-2′-hydroxy-[1,1′-biphenyl]-3-yl)methyl)morpholine-3-carboxamido)ethyl)benzoic acid] in this work.
An EC50 (human EP4; [2]) of 2.51e-07 M and a cAMP human EP4 Emax (human EP4; HEK293 cells transfected with EP4 Bacmam virus, positive control 10 uM PGE2) of 95% were found for `Cc1cc(C(N)=O)ccc1-c1cccc(CN2CCOC[C@@H]2C(=O)NC(C)c2cc(F)c(C(=O)O)c(F)c2)c1` (single isomer, unassigned) [Example 27] in this work.
In the case of `Cc1cc(S(N)(=O)=O)ccc1-c1cc(O)cc(CN2CCOC[C@@H]2C(=O)N[C@@H](C)c2ccc(C(=O)O)cc2)c1` [Example 11, 4-[(1S)-1-[[(3R)-4-[[3-hydroxy-5-(2-methyl-4-sulfamoyl-phenyl)phenyl]methyl]morpholine-3-carbonyl]amino]ethyl]benzoic acid], the Emax (human EP4; positive control 10 uM PGE2) is reported as 98%, the EC50 (human EP4; [2]) is reported as 3.98e-10 M and the Papp A→B at 1 h, 10 μM [1] is reported as < 0.1 ×10⁻⁶ cm/s.
An Emax (human EP4; positive control 10 uM PGE2) of 99%, an EC50 (human EP4; [2]) of 1.58e-08 M and a Papp A→B at 1 h, 10 μM [1] of 0.12 ×10⁻⁶ cm/s were found for `Cc1cc(S(N)(=O)=O)ccc1-c1cncc(CN2CCOC[C@@H]2C(=O)N[C@@H](C)c2ccc(C(=O)O)cc2)c1` [Example 12, 4-[(1S)-1-[[(3R)-4-[[5-(2-methyl-4-sulfamoyl-phenyl)-3-pyridyl]methyl]morpholine-3-carbonyl]amino]ethyl]benzoic acid] in this work.
An Emax (human EP4; positive control 10 uM PGE2) of 96%, an EC50 (human EP4; [2]) of 2.51e-10 M and a Papp A→B at 1 h, 10 μM [1] of 0.11 ×10⁻⁶ cm/s were found for `Cc1cc(C(N)=O)ccc1-c1cc(O)cc(CN2CCOC[C@@H]2C(=O)N[C@@H](C)c2ccc(-c3nnn[nH]3)cc2)c1` [Example 36, (R)—N-((S)-1-(4-(1H-tetrazol-5-yl)phenyl)ethyl)-4-((4′-carbamoyl-5-hydroxy-2′-methyl-[1,1′-biphenyl]-3-yl)methyl)morpholine-3-carboxamide] in this work.
An Emax (human EP4; positive control 10 uM PGE2) of 95%, an EC50 (human EP4; [2]) of 6.31e-08 M and a Papp A→B at 1 h, 10 μM [1] of 0.5 ×10⁻⁶ cm/s were found for `Cc1cc(C(N)=O)ccc1-c1ccnc(CN2CCOC[C@@H]2C(=O)N[C@@H](C)c2ccc(C(=O)O)cc2)c1` [Example 4, 4-[(1S)-1-[[(3R)-4-[[4-(4-carbamoyl-2-methyl-phenyl)-2-pyridyl]methyl]morpholine-3-carbonyl]amino]ethyl]benzoic acid] in this work.
An Emax (human EP4; positive control 10 uM PGE2) of 101% and an EC50 (human EP4; [2]) of 5.01e-10 M were found for `Cc1cc(OS(N)(=O)=O)ccc1-c1cccc(CN2CCOC[C@@H]2C(=O)N[C@@H](C)c2ccc(C(=O)O)cc2)c1` [Example 20, 4-((S)-1-((R)-4-((2′-methyl-4′-(sulfamoyloxy)-[1,1′-biphenyl]-3-yl)methyl)morpholine-3-carboxamido)ethyl)benzoic acid] in this work.
An Emax (human EP4; positive control 10 uM PGE2) of 89% and an EC50 (human EP4; [2]) of 1e-06 M were found for `Cc1cc(C(N)=O)ccc1-c1cccc(CN2CCOC[C@@H]2C(=O)N[C@@H](C)c2ccc(C(=O)O)cc2)n1` [Example 2, 4-[(1S)-1-[[(3R)-4-[[6-(4-carbamoyl-2-methyl-phenyl)-2-pyridyl]methyl]-morpholine-3-carbonyl]amino]ethyl]benzoic acid] in this work.
An Emax (human EP4; positive control 10 uM PGE2) of 93% and an EC50 (human EP4; [2]) of 1.58e-07 M were found for `Cc1cc(C(N)=O)ccc1-c1cc(CN2CCOC[C@@H]2C(=O)N[C@@H](C)c2ccc(C(=O)O)cc2)c[n+]([O-])c1` [Example 30, 3-(4-carbamoyl-2-methylphenyl)-5-(((R)-3-(((S)-1-(4-carboxyphenyl)ethyl)carbamoyl)morpholino)methyl)pyridine 1-oxide] in this work.
An Emax (human EP4; positive control 10 uM PGE2) of 97% was found for `Cc1cc(C(N)=O)ccc1-c1cccc(CN2CCOC[C@@H]2C(=O)NC(C)c2cc(F)c(C(=O)O)c(F)c2)c1` (single isomer, unassigned) [Example 26] in this work.

Source: patent publication US12492174B2, “Morpholine-3-carboxamide derivatives as prostaglandin E2 receptor 4 (EP4) agonists for the treatment of gastrointestinal and pulmonary diseases” (NXERA PHARMA UK LIMITED, priority 2022, dated 2025)
